# Laboratory results published in patent US20060020036A1, “Methods and compositions to promote bone homestasis” (priority 2004, published 2006).
# “Also recorded” adds a separate entry of the source.
# Experiments:
# [1] = test system: RUNX2 (DN-RUNX2) in MPCs infected with Ad-NR1H3; assay: DN-RUNX2 assay (AP activity in MPCs); type: cell-based, human; conditions: Ad-NR1H3 in the presence of T0901317, Ad-DN-RUNX2 vs Ad-luciferase, 6 days post infection
# Procedure: MPCs are seeded at 1000 cells/well in a 384 well plate and infected the next day with adenoviruses encoding hCAR (MOI 250), Ad-BMP2 (MOIs 6000, 2000, 666) and one of Ad-DN-RUNX2 or Ad-luciferase (MOIs 2000 or 666). Alkaline phosphatase activity is read 6 days post infection.
# MPCs are seeded at 1000 cells/well in a 384 well plate and are infected the next day with adenoviruses encoding hCAR (MOI 250), Ad-BMP2, Ad-ESRRG, Ad-NR5A2, Ad-NR1H3 (MOIs 6000, 2000, 666) and one of Ad-DN-RUNX2 or Ad-luciferase (MOI 1000 or MOIs 2000 and 666) (see FIG. 19 (C)). Alkaline phosphatase activity is read 6 days post infection and raw data are analysed.
# [2] = test system: osteogenic markers mRNA in MPCs infected with Ad-NR1H3; assay: Osteogenic marker mRNA levels (rtRT-PCR) in MPCs infected with Ad-NR1H3 + T0901317; type: cell-based, human; conditions: Ad-NR1H3 + T0901317 (1 μM)
# Procedure: Osteogenic differentiation of MPCs into osteoblasts is accompanied by the up-regulation of osteogenic proteins. […] The MPCs that are used in this study are profiled for the up-regulation of a limited set of osteogenic markers by BMP2. Markers that show differential expression for BMP2 are subsequently tested against mRNA derived from Ad-NR5A2 infected cells or derived from Ad-NR1H3+T0901317 treated cells. 100,000 MPCs are seeded in each well of a 6 well plate in 2 ml MPC medium, containing 10% FCS. The next day, after incubation at 37° C., 10% CO2 in a humidified incubator, cells are co-infected with AdC15-hCAR (final MOI of 750) and Ad-NR5A2, Ad-NR1H3+T0901317 (1 μM) or Ad-BMP2 (positive control) or Ad-eGFP or Ad-luciferase as negative controls (final MOIs of 1250 and 2500). Cells are incubated at 37° C., 10% CO2 in a humidified incubator for a further six days unless cells are already harvested for RNA isolation. Virus is removed and replaced by 2 ml fresh OS medium (proprietary medium containing 10% FCS). Over the next 3 weeks, medium is refreshed 3 times per 2 weeks. Every other time, medium is refreshed half or completely. Monolayers are harvested at several time points (see FIG. 15), total RNA is harvested and quantified and rtRT-PCRs are run as follows: monolayers are washed with ice cold PBS and harvested by adding SV RNA Lysis Buffer. Total RNA is prepared using the SV Total RNA isolation System (Promega, Cat # Z3100). RNA concentration is measured with the Ribogreen RNA Quantification kit (Molecular Probes, Leiden, The Netherlands, Cat No. R-11490). cDNA synthesis is performed using 20 ng total RNA per reaction using the TaqMan Universal PCR Master Mix, No AmpErase UNG, kit (Applied Biosystems, Warrington, UK, Part number 4324018). For each reverse transcriptase (RT) reaction a minus-RT reaction (negative control: no enzyme included in the reaction) is performed. The real-time reverse transcriptase (rtRT)-PCR reaction is performed with gene specific primers on both cDNA and minus-RT samples, using the SYBR Green PCR Master Mix (Applied Biosystems, Warrington, UK, Part number 4309155). Primers are quality controlled by performing PCR reactions on human genomic DNA and on plasmids containing the cDNA encoded by the gene studied if available. If the quality is unsatisfactory, additional primers are designed or validated primer sets are purchased (ABI). For the normalization of the expression levels a RT-PCR reaction is performed on human β-actin using the Human β-actin kit (Applied Biosystems, Warrington, UK, Part number 4310881E). The following program is run on a real-time PCR apparatus (ABI PRISM 7000 Sequence Detection System): 10 min at 25° C., 30 min at 48° C., 5 min at 95° C.
# Expression levels for osteogenic marker genes are first normalized for beta-actin levels. The resulting data for Ad-BMP2, Ad-NR5A2 and Ad-NR1H3+T0901317 (1 μM) samples are then compared to those of Ad-eGFP or Ad-luciferase negative control samples, harvested at the same time points, for cells infected at the same MOI.
# [3] = up-regulated if 4-fold higher than negative control, one or more time points
structure (smiles),measurement,setting,value
"O=S(=O)(c1ccccc1)N(CC(F)(F)F)c1ccc(C(O)(C(F)(F)F)C(F)(F)F)cc1 [T0901317, N-(2,2,2-trifluoroethyl)-N-[4-[2,2,2-trifluoro-1-hydroxy-1-(trifluoromethyl)ethyl]phenyl]-benzenesulfonamide]",up-regulation of AP activity upon overexpression of DN-RUNX2,[1],overexpression of DN-RUNX2 significantly reduces the up-regulation of AP activity; also recorded: DN-RUNX2 interferes with induction of AP activity
same,BAP mRNA expression,[2]; [3],up-regulated expression
same,PTHR1 mRNA expression,[2]; [3],up-regulated expression
same,RANKL mRNA expression,[2]; [3],up-regulated expression
same,aromatase mRNA expression,[2]; [3],up-regulated expression
same,osteopontin mRNA expression,[2]; [3],up-regulated expression
same,mRNA levels of osteogenic markers,[2]; MPCs,up-regulate mRNA levels of osteogenic markers
